Experimental data reported in ChEMBL document CHEMBL4219209, “Design, synthesis and biological evaluation of novel tetrahydroisoquinoline derivatives as P-glycoprotein-mediated multidrug resistance inhibitors” (Bioorg Med Chem, 2018).
Structures can show the parent of a compound that is named as a salt. Calls of active or inactive are those of the source. The rule behind the calls is not given here.

Tests used:
[1] = test system: K562/A02; assay: Cytotoxicity against human K562/A02 cells overexpressing P-gp assessed as reduction in cell viability after 48 hrs by MTT assay; type: ADME, cell-based; conditions: K562/A02, 48 h
[2] = species: Homo sapiens; assay: Inhibition of P-gp in human K562/A02 cells assessed as potentiation of adriamycin-induced cytotoxicity by measuring fold reduction in adriamycin IC50 at 5 uM after 48 hrs by MTT assay relative to adriamycin alone; type: cell-based
[3] = test system: K562; assay: Cytotoxicity against human K562 cells assessed as reduction in cell viability after 48 hrs by MTT assay; type: cell-based; conditions: K562, 48 h
[4] = test system: K562; assay: Inhibition of P-gp in human K562 cells assessed as increase in Rh123 accumulation at 5 uM after 2.5 hrs by flow cytometry method; type: cell-based
[5] = species: Homo sapiens; assay: Inhibition of P-gp in human K562/A02 cells assessed as potentiation of adriamycin-induced cytotoxicity by measuring fold reduction in adriamycin IC50 at 5 uM preincubated for 24 hrs followed by adriamycin addition measured after 48 hrs by MTT assay relative to adriamycin alone; type: cell-based
[6] = test system: K562/A02; conditions: Homo sapiens, 5 uM
Description: Inhibition of P-gp in human K562/A02 cells assessed as increase in adriamycin accumulation at 5 uM after 2.5 hrs by flow cytometry method

[7] = species: Homo sapiens; assay: (§1) Inhibition of P-gp in human K562/A02 cells assessed as potentiation of adriamycin-induced cytotoxicity by measuring fold reduction in adriamycin IC50 at 5 uM preincubated for 24 hrs followed by compound wash out and subsequent addition of adriamycin after 24 hrs measured after 48 hrs by MTT assay relative to adriamycin alone; type: cell-based
[8] = test system: K562; assay: Inhibition of P-gp in human K562 cells assessed as Rh123 efflux at 5 uM after 90 mins by fluorospectro photometric analysis (reference value: >70%); type: cell-based; set-up: scale not given: the % may be the effect or the level left
[9] = species: Homo sapiens; assay: Inhibition of P-gp in human K562/A02 cells assessed as potentiation of adriamycin-induced cytotoxicity by measuring fold reduction in adriamycin IC50 at 0.025 uM after 48 hrs by MTT assay relative to adriamycin alone; type: cell-based
[10] = species: Homo sapiens; assay: as §1, with “after 12” for “after 24”; type: cell-based
[11] = species: Homo sapiens; assay: Inhibition of P-gp in human K562/A02 cells assessed as potentiation of adriamycin-induced cytotoxicity by measuring fold reduction in adriamycin IC50 at 2.5 uM after 48 hrs by MTT assay relative to adriamycin alone; type: cell-based
[12] = species: Homo sapiens; assay: Inhibition of P-gp in human K562/A02 cells assessed as potentiation of adriamycin-induced cytotoxicity by measuring fold reduction in adriamycin IC50 at 1 uM after 48 hrs by MTT assay relative to adriamycin alone; type: cell-based
[13] = (§2) Inhibition of P-gp in human K562/A02 cells assessed as potentiation of adriamycin-induced cytotoxicity after 48 hrs by MTT assay; type: cell-based; conditions: K562/A02, 48 h
[14] = species: Homo sapiens; assay: as §2; type: cell-based
[15] = species: Homo sapiens; assay: Inhibition of P-gp in human K562/A02 cells assessed as potentiation of adriamycin-induced cytotoxicity by measuring fold reduction in adriamycin IC50 at 0.1 uM after 48 hrs by MTT assay relative to adriamycin alone; type: cell-based
[16] = species: Homo sapiens; assay: Inhibition of P-gp in human K562/A02 cells assessed as potentiation of adriamycin-induced cytotoxicity by measuring fold reduction in adriamycin IC50 at 0.5 uM after 48 hrs by MTT assay relative to adriamycin alone; type: cell-based
[17] = species: Homo sapiens; assay: as §1, with “after 6” for “after 24”; type: cell-based
[18] = species: Homo sapiens; assay: as §1, with “adriamycin” for “adriamycin after 24 hrs”; type: cell-based
[19] = test system: K562/A02; assay: Inhibition of P-gp in human K562/A02 cells assessed as increase in adriamycin accumulation after 2.5 hrs by flow cytometry method; type: cell-based
[20] = species: Homo sapiens; assay: Inhibition of P-gp in human K562/A02 cells assessed as potentiation of adriamycin-induced cytotoxicity by measuring fold reduction in adriamycin IC50 at 0.25 uM after 48 hrs by MTT assay relative to adriamycin alone; type: cell-based
[21] = species: Homo sapiens; assay: Inhibition of P-gp in human K562/A02 cells assessed as potentiation of adriamycin-induced cytotoxicity by measuring fold reduction in adriamycin IC50 at 0.05 uM after 48 hrs by MTT assay relative to adriamycin alone; type: cell-based

SMILES	IC50 ([1]; read-out: IC50) [µM]	Ratio IC50 [2]	IC50 [3] [µM]	also measured
COc1cc2c(cc1OC)CN(CCn1cc(CNc3ccccc3C(=O)Nc3ccc(OC(F)(F)F)cc3)nn1)CC2	> 100	21.4	90.2	
COc1cc2c(cc1OC)CN(CCn1cc(CNc3ccccc3C(=O)Nc3ccc(F)cc3)nn1)CC2	> 100	3.7	61	
COc1cc2c(cc1OC)CN(CCn1cc(CNc3ccccc3C(=O)Nc3ccc(F)c(F)c3)nn1)CC2	> 100	3.7	87.9	
COc1cc2c(cc1OC)CN(CCn1cc(CNc3ccccc3C(=O)Nc3ccc([N+](=O)[O-])cc3)nn1)CC2	> 100	2.6	43.8	
COc1cc2c(cc1OC)CN(CCn1cc(CNc3ccccc3C(=O)NCC(C)C)nn1)CC2	> 100	1.7	61.5	
COc1ccc(CCNC(=O)c2ccccc2NCc2cn(CCN3CCc4cc(OC)c(OC)cc4C3)nn2)cc1OC	> 100	1.2	61.1	
COc1ccc(NC(=O)c2ccccc2NCc2cn(CCN3CCc4cc(OC)c(OC)cc4C3)nn2)cc1	> 100		58.4	
COc1ccc(CCN(C)CCCC(C#N)(c2ccc(OC)c(OC)c2)C(C)C)cc1OC (stereo unspecified) [VERAPAMIL]		3.3	82.2	inhibition [4]: Active; IC50 [1]: 67.2 µM; Ratio IC50 [5]: 4.8; inhibition [6]: Active
COc1cc2c(cc1OC)CN(CCn1cc(CNc3ccccc3C(=O)Nc3ccc(C(C)(C)C)cc3)nn1)CC2	> 100	34.2 to 39	45.4	Ratio IC50 [7]: 3; Activity [8]: < 40%; Ratio IC50 [9]: 1.2; Ratio IC50 [10]: 5; Ratio IC50 [11]: 13.1; inhibition [4]: Active; Ratio IC50 [12]: 7.3; EC50 [13]: 0.253 µM; inhibition [14]: Dose-dependent effect; Ratio IC50 [5]: 40.7; Ratio IC50 [15]: 1.3; Ratio IC50 [16]: 3.8; Ratio IC50 [17]: 8.1; Ratio IC50 [18]: 11.6; inhibition [19]: Dose-dependent effect; Ratio IC50 [20]: 2.3; Ratio IC50 [21]: 1.2
COc1cc2c(cc1OC)CN(CCn1cc(CNc3ccccc3C(=O)Nc3ccc(Cl)cc3)nn1)CC2	> 100	2.6	43.4	
COc1cc2c(cc1OC)CN(CCn1cc(CNc3ccccc3C(=O)Nc3ccc4c(c3)OCO4)nn1)CC2	> 100	4.6	41.5	
COc1cc2c(cc1OC)CN(CCn1cc(CNc3ccccc3C(=O)NCCc3ccccc3)nn1)CC2	> 100	4.3	42.2	
COc1cccc2c1C(=O)c1c(O)c3c(c(O)c1C2=O)C[C@@](O)(C(=O)CO)C[C@@H]3O[C@H]1C[C@H](N)[C@H](O)[C@H](C)O1 [DOXORUBICIN HYDROCHLORIDE]	65.6		0.97	
COc1cc2c(cc1OC)CN(CCn1cc(CNc3ccccc3C(=O)Nc3cc(OC)c(OC)c(OC)c3)nn1)CC2	> 100	1.3	43.1	
COc1cc2c(cc1OC)CN(CCn1cc(CNc3ccccc3C(=O)NCc3ccccc3)nn1)CC2	> 100	4.5	49.6	
COc1cc2c(cc1OC)CN(CCn1cc(CNc3ccccc3C(=O)Nc3ccccc3)nn1)CC2	> 100	2.1	34.3	
COc1ccc(NC(=O)c2ccccc2NCc2cn(CCN3CCc4cc(OC)c(OC)cc4C3)nn2)cc1OC	> 100	1.3	60.5	
COc1cc2c(cc1OC)CN(CCn1cc(CNc3ccccc3C(=O)NC3CCOCC3)nn1)CC2	> 100	8.2	59.2	
COc1cc2c(cc1OC)CN(CCc1ccc(NC(=O)c3cc(OC)c(OC)cc3NC(=O)c3cnc4ccccc4c3)cc1)CC2		49.4		Ratio IC50 [7]: 3.6; Ratio IC50 [10]: 6.2; Ratio IC50 [5]: 32.1; Ratio IC50 [17]: 10.3; Ratio IC50 [18]: 17
CCCCc1ccc(NC(=O)c2ccccc2NCc2cn(CCN3CCc4cc(OC)c(OC)cc4C3)nn2)cc1	> 100	15.5	75.7	
